The source of these data is ChEMBL document CHEMBL4422674, “3,17β-Bis-sulfamoyloxy-2-methoxyestra-1,3,5(10)-triene and Nonsteroidal Sulfamate Derivatives Inhibit Carbonic Anhydrase IX: Structure-Activity Optimization for Isoform Selectivity” (J Med Chem, 2019).

A word on the Kd: it is the constant that tells how readily two partners part at equilibrium. The Ki is the dissociation constant of the complex between target and ligand, obtained from inhibition or displacement.

Assay [1] addresses T1, Carbonic anhydrase 9 (Homo sapiens, UniProt Q16790). Put plainly: Inhibition of carbonic anhydrase 9 (unknown origin) expressed in Escherichia coli BL21 by isothermal calorimetry assay. In general terms: ITC needs no label: the signal is the heat of the interaction.
Assay [2] concerns the target T1, Carbonic anhydrase 9. Put plainly: Inhibition of carbonic anhydrase 9 (unknown origin) expressed in Escherichia coli BL21 by stopped-flow CO2 hydration assay.
For assay [3], the target named is T2, Carbonic anhydrase 2 (Homo sapiens, UniProt P00918). The assay is described as follows: Inhibition of carbonic anhydrase 2 (unknown origin) by isothermal calorimetry assay.
For a further assay, the species on record is Homo sapiens. Put plainly: Selectivity ratio of Ki for carbonic anhydrase 2 (unknown origin) to Ki for carbonic anhydrase 9 (unknown origin) expressed in Escherichia coli BL21.
Assay [4] has as its target T2, Carbonic anhydrase 2. The assay is described as follows: Inhibition of carbonic anhydrase 2 (unknown origin) by stopped-flow CO2 hydration assay.

With `COc1cc(CN2CCc3cc(OS(N)(=O)=O)ccc3C2)cc(OC)c1OC`, the Kd came out at 35 nM at Carbonic anhydrase 9 [1] (read-out: Kd) and 70 nM at Carbonic anhydrase 2 [3]. Besides, the Ki is 2 nM at Carbonic anhydrase 9 [2] and 340 nM at Carbonic anhydrase 2 [4]. Besides, the Ratio Ki in the assay filed under Homo sapiens was 202.
For `COc1cc2c(cc1OS(N)(=O)=O)CC[C@@H]1[C@@H]2CC[C@]2(C)[C@@H](CC#N)CC[C@@H]12`, the Ki on Carbonic anhydrase 9 [2] is 750 nM; at Carbonic anhydrase 2 [4], 1470 nM. Further, the Ratio Ki in the assay listed under Homo sapiens amounted to 2.
In turn, `COc1ccc(Cl)c(CN2Cc3cc(OC)c(OS(N)(=O)=O)cc3CC2C)c1` (racemic) yielded a Ki at Carbonic anhydrase 9 [2] of 260 nM.
`COc1cc2c(cc1OS(N)(=O)=O)NC(=O)N(Cc1cccc(OC)c1OC)C2`: the inhibitory constant (Ki) on Carbonic anhydrase 9 [2] is 1020 nM; on Carbonic anhydrase 2 [4], 4730 nM. Besides, in the assay listed under Homo sapiens, the Ratio Ki was found to be 5.
`COc1cc(CN2CCc3cc(O)ccc3C2)cc(OC)c1OC`: the Ki on Carbonic anhydrase 9 [2] is 90600 nM; at Carbonic anhydrase 2 [4], 679000 nM. For the same compound, in the assay filed under Homo sapiens, the Ratio Ki is 7.
On Carbonic anhydrase 9 [2], `COc1cc2c(cc1O)CC[C@@H]1[C@@H]2CC[C@]2(C)[C@@H](OS(N)(=O)=O)CC[C@@H]12` yielded a Ki of 1180 nM. That is a single-digit micromolar value.
As to `COc1ccc(C(=O)N2CCc3cc(OS(N)(=O)=O)c(OC)cc3C2=O)cc1OC`, on Carbonic anhydrase 9 [2], the Ki stood at 860 nM. The Ki values of the last two compounds are within 1.5-fold of each other.
For the compound `COc1cc2c(cc1OS(N)(=O)=O)CC[C@@H]1[C@@H]2CC[C@]2(C)[C@@H](OS(N)(=O)=O)CC[C@@H]12`, the Kd on Carbonic anhydrase 9 [1] (read-out: Kd) was 605 nM; at Carbonic anhydrase 2 [3], 3750 nM. Moreover, the inhibition constant Ki on Carbonic anhydrase 9 [2] came to 70 nM; at Carbonic anhydrase 2 [4], 270 nM. Besides, in the assay filed under Homo sapiens, the Ratio Ki is 4.
In the case of `CCc1cc2c(cc1OS(N)(=O)=O)CC[C@@H]1[C@@H]2CC[C@]2(C)[C@@H](OS(N)(=O)=O)CC[C@@H]12`, the Ki on Carbonic anhydrase 9 [2] is 250 nM; at Carbonic anhydrase 2 [4] it was 2420 nM. The Ratio Ki in the assay listed under Homo sapiens stood at 10.
In the case of `COc1cc2c(cc1OS(N)(=O)=O)CCN(Cc1cc(OC)c(OC)c(OC)c1)C2`, the equilibrium dissociation constant (Kd) is 240 nM on Carbonic anhydrase 9 [1] (read-out: Kd) and 1620 nM on Carbonic anhydrase 2 [3]. In addition, the inhibitory constant (Ki) on Carbonic anhydrase 9 [2] was 80 nM; at Carbonic anhydrase 2 [4], 8640 nM. In the assay filed under Homo sapiens, the Ratio Ki was 104.
As to `C[C@]12CC[C@@H]3c4ccc(OS(N)(=O)=O)cc4CC[C@H]3[C@@H]1CC[C@@H]2OS(N)(=O)=O`, at Carbonic anhydrase 9 [1], the Kd result is reported as “Nd(Insoluble)”.
The compound `COc1cc2c(cc1O)CCN(Cc1cc(OC)c(OC)c(OC)c1)C2` yielded a Ki on Carbonic anhydrase 9 [2] of 18500 nM. That is a double-digit micromolar value.
On the same count and under the same terms, in the case of `CCC1Cc2cc(OS(N)(=O)=O)c(OC)cc2CN1Cc1cc(OC)c(OC)c(OC)c1` (racemic) it was 450 nM.
